Structures are written as SMILES.

Among the data in patent publication US7671054B1, “Reverse-turn mimetics and method relating thereto” (Choongwae Pharma Corporation, priority 2001, dated 2010) are IC50 values, retold here.

The subject of the test is TCF4/β-catenin transcription (TOPFlash) in SW480 cells. As to the kind of experiment: Reporter gene assay (TOPFlash luciferase). Type of test: cell-based. The settings on record: Homo sapiens, SW480, Table 4; Reporter gene assay as described in Example 6; read-out: IC50. The protocol: SW480 cells were transfected with the usage of Superfect™ transfect reagent (Qiagen, 301307). Cells were trypsinized briefly 1 day before transfection and plated on 6 well plate (5×10^5 cells/well) so that they were 50-80% confluent on the day of transfection.
Four microgram (TOPFlash) and one microgram (pRL-null) of DNAs were diluted in 150 μl of serum-free medium, and 30 μl of Superfect™ transfect reagent was added. The DNA-Superfect mixture was incubated at room temperature for 15 min, and then, 1 ml of 10% FBS DMEM was added to this complex for an additional 3 hours of incubation. While complexes were forming, cells were washed with PBS twice without antibiotics.
The DNA-Superfect™ transfect reagent complexes were applied to the cells before incubating at 37° C. at 5% CO2 for 3 hours. After incubation, recovery medium with 10% FBS was added to bring the final volume to 1.18 ml. After 3 hours incubation, the cells were harvested and reseeded to 96 well plate (3×10^4 cells/well). After overnight incubation at 37° C. at 5% CO2, the cells were treated with Compound A for 24 hours. Finally, the activity was checked by means of luciferase assay (Promega, E1960).
On the technique in general: Reporter assays use an easily measured gene product as a stand-in for the process of interest.
On to `C#CCN1CC(=O)N2[C@@H](Cc3ccc(O)cc3)C(=O)N(Cc3cccc(N4CCOCC4)c3)C[C@@H]2N1C(=O)NCc1ccccc1` [Compound 118], for which the IC50 came out at 800 ± 100 nM. The value for `O=C1[C@H](Cc2ccc(O)cc2)N2C(=O)CON(C(=O)NCc3ccccc3)[C@H]2CN1Cc1cccc2cccnc12` [Compound 119] was 8800 ± 1300 nM; that for `CN(Cc1cccc(CN2C[C@H]3N(C(=O)CN(C)N3C(=O)NCc3ccccc3)[C@@H](Cc3ccc(O)cc3)C2=O)c1)C1CCOCC1` [Compound 120] was 34400 ± 4900 nM; that for `CCN1CC(=O)N2[C@@H](Cc3ccc(O)cc3)C(=O)N(Cc3cccc4cccnc34)C[C@@H]2N1C(=O)NCc1ccccc1` [Compound 121] was 3000 ± 400 nM. As to `CCCN1CC(=O)N2[C@@H](Cc3ccc(O)cc3)C(=O)N(Cc3cccc4cccnc34)C[C@@H]2N1C(=O)NCc1ccccc1` [Compound 122], the IC50 stood at 2100 ± 400 nM.

Take `CCN1CC(=O)N2[C@@H](Cc3ccc(O)cc3)C(=O)N(Cc3cccc(N4CCOCC4)c3)C[C@@H]2N1C(=O)NCc1ccccc1` [Compound 123]: the IC50 was found to be 11700 ± 1000 nM. To `CCCN1CC(=O)N2[C@@H](Cc3ccc(O)cc3)C(=O)N(Cc3cccc(N4CCOCC4)c3)C[C@@H]2N1C(=O)NCc1ccccc1` [Compound 124] belongs 6400 ± 400 nM; to `CCN1CC(=O)N2[C@@H](Cc3ccc(O)cc3)C(=O)N(Cc3ccc(Cl)c(N(C)C)c3)C[C@@H]2N1C(=O)NCc1ccccc1` [Compound 125], 9800 ± 700 nM.

Consider `CCCN1CC(=O)N2[C@@H](Cc3ccc(O)cc3)C(=O)N(Cc3ccc(Cl)c(N(C)C)c3)C[C@@H]2N1C(=O)NCc1ccccc1` [Compound 126], for which the IC50 was determined as 10300 ± 1500 nM.

As for `C=CCN1CC(=O)N2[C@@H](Cc3ccc(O)cc3)C(=O)N(Cc3cccc(N4CCOCC4)c3)C[C@@H]2N1C(=O)NCc1ccccc1` [Compound 127], the IC50 was determined as 1800 ± 200 nM. The value for `C=CCN1CC(=O)N2[C@@H](Cc3ccc(O)cc3)C(=O)N(Cc3cccc4cccnc34)C[C@@H]2N1C(=O)NCc1ccccc1` [Compound 128] was 400 ± 100 nM; that for `C=CCN1CC(=O)N2[C@@H](Cc3ccc(O)cc3)C(=O)N(Cc3ccc(Cl)c(N(C)C)c3)C[C@@H]2N1C(=O)NCc1ccccc1` [Compound 129] was 2400 ± 500 nM; that for `CN1CC(=O)N2[C@@H](Cc3ccc(O)cc3)C(=O)N(Cc3cccc(OCCN4CCOCC4)c3)C[C@@H]2N1C(=O)NCc1ccccc1` [Compound 130] was 6100 ± 400 nM. Take `C#CCN1CC(=O)N2[C@@H](Cc3ccc(O)cc3)C(=O)N(Cc3cccc(OCCN4CCOCC4)c3)C[C@@H]2N1C(=O)NCc1ccccc1` [Compound 131]: the IC50 was 2200 ± 300 nM. The value for `C=CCN1CC(=O)N2[C@@H](Cc3ccc(O)cc3)C(=O)N(Cc3cccc(OCCN4CCOCC4)c3)C[C@@H]2N1C(=O)NCc1ccccc1` [Compound 132] was 2300 ± 500 nM; that for `C=CCN1CC(=O)N2[C@@H](Cc3ccc(O)cc3)C(=O)N(Cc3ccc(C)c(N4CCOCC4)c3)C[C@@H]2N1C(=O)NCc1ccccc1` [Compound 133] was 3500 ± 700 nM. To `C#CCN1CC(=O)N2[C@@H](Cc3ccc(O)cc3)C(=O)N(Cc3ccc(C)c(N4CCOCC4)c3)C[C@@H]2N1C(=O)NCc1ccccc1` [Compound 134] belongs 4500 ± 900 nM; to `C#CCN1CC(=O)N2[C@@H](Cc3ccc(O)cc3)C(=O)N(Cc3ccc4c(c3)OCCO4)C[C@@H]2N1C(=O)NCc1ccccc1` [Compound 135], 2400 ± 700 nM; to `C=CCN1CC(=O)N2[C@@H](Cc3ccc(O)cc3)C(=O)N(Cc3ccc4[nH]nnc4c3)C[C@@H]2N1C(=O)NCc1ccccc1` [Compound 136], 28000 ± 2900 nM. To `C=CCN1CC(=O)N2[C@@H](Cc3ccc(O)cc3)C(=O)N(Cc3ccc(Cl)c4cccnc34)C[C@@H]2N1C(=O)NCc1ccccc1` [Compound 137] belongs 600 ± 100 nM; to `C#CCN1CC(=O)N2[C@@H](Cc3ccc(O)cc3)C(=O)N(Cc3ccc(Cl)c4cccnc34)C[C@@H]2N1C(=O)NCc1ccccc1` [Compound 138], 1000 ± 200 nM.

Turning to `C=CCN1CC(=O)N2[C@@H](Cc3ccc(O)cc3)C(=O)N(Cc3ccc(Cl)c(N4CCOCC4)c3)C[C@@H]2N1C(=O)NCc1ccccc1` [Compound 139], the half-maximal inhibitory concentration (IC50) was found to be 1100 ± 100 nM. To `C#CCN1CC(=O)N2[C@@H](Cc3ccc(O)cc3)C(=O)N(Cc3ccc(Cl)c(N4CCOCC4)c3)C[C@@H]2N1C(=O)NCc1ccccc1` [Compound 140] belongs 2700 ± 300 nM; to `C#CCN1CC(=O)N2[C@@H](Cc3ccc(O)cc3)C(=O)N(Cc3ccc4ncsc4c3)C[C@@H]2N1C(=O)NCc1ccccc1` [Compound 141], 1800 ± 300 nM. To `C=CCN1CC(=O)N2[C@@H](Cc3ccc(O)cc3)C(=O)N(Cc3ccc4ncsc4c3)C[C@@H]2N1C(=O)NCc1ccccc1` [Compound 142] belongs 1600 ± 400 nM; to `C=CCN1CC(=O)N2[C@@H](Cc3ccc(O)cc3)C(=O)N(Cc3ccc(F)cc3F)C[C@@H]2N1C(=O)NCc1ccccc1` [Compound 143], 1300 ± 200 nM. To `C#CCN1CC(=O)N2[C@@H](Cc3ccc(O)cc3)C(=O)N(Cc3ccc(F)cc3F)C[C@@H]2N1C(=O)NCc1ccccc1` [Compound 144] belongs 2100 ± 200 nM; to `C=CCN1CC(=O)N2[C@@H](Cc3ccc(O)cc3)C(=O)N(Cc3cccc4c3N(C)CCO4)C[C@@H]2N1C(=O)NCc1ccccc1` [Compound 145], 300 ± 40 nM; to `C#CCN1CC(=O)N2[C@@H](Cc3ccc(O)cc3)C(=O)N(Cc3ccc4c(c3)OCCN4C)C[C@@H]2N1C(=O)NCc1ccccc1` [Compound 146], 16700 ± 1400 nM.

On to `C=CCN1CC(=O)N2[C@@H](Cc3ccc(O)cc3)C(=O)N(Cc3ccc4c(c3)OCCN4C)C[C@@H]2N1C(=O)NCc1ccccc1` [Compound 147], for which the IC50 was 9400 ± 1000 nM. To `CCCN1CC(=O)N2[C@@H](Cc3ccc(O)cc3)C(=O)N(Cc3ccc(Cl)c4cccnc34)C[C@@H]2N1C(=O)NCc1ccccc1` [Compound 148] belongs 2600 ± 300 nM; to `C=C(C)CN1CC(=O)N2[C@@H](Cc3ccc(O)cc3)C(=O)N(Cc3ccc(Cl)c4cccnc34)C[C@@H]2N1C(=O)NCc1ccccc1` [Compound 149], 31000 ± 6400 nM; to `CN1CC(=O)N2[C@@H](Cc3ccc(O)cc3)C(=O)N(Cc3cccc(N4CCCC4=O)c3)C[C@@H]2N1C(=O)NCc1ccccc1` [Compound 150], 12700 ± 700 nM.

Regarding `C=CCN1CC(=O)N2[C@@H](Cc3ccc(O)cc3)C(=O)N(Cc3cccc(N4CCCC4=O)c3)C[C@@H]2N1C(=O)NCc1ccccc1` [Compound 152], the IC50 amounted to 1200 ± 300 nM.

Take `C=CCN1CC(=O)N2[C@@H](Cc3ccc(O)cc3)C(=O)N(Cc3cccc(N4CCCC4)c3)C[C@@H]2N1C(=O)NCc1ccccc1` [Compound 154]: the IC50 is 3200 ± 400 nM. To `CCCN1CC(=O)N2[C@@H](Cc3ccc(O)cc3)C(=O)N(Cc3cc(N(C)C(C)C)cc(C(F)(F)F)c3)C[C@@H]2N1C(=O)NCc1ccccc1` [Compound 155] belongs 30500 ± 4100 nM. The value for `C=CCN1CC(=O)N2[C@@H](Cc3ccc(O)cc3)C(=O)N(Cc3cc(N(C)C(C)C)cc(C(F)(F)F)c3)C[C@@H]2N1C(=O)NCc1ccccc1` [Compound 156] was 13300 ± 1600 nM; that for `CCCN1CC(=O)N2[C@@H](Cc3ccc(O)cc3)C(=O)N(Cc3ccc(F)cc3F)C[C@@H]2N1C(=O)NCc1ccccc1` [Compound 157] was 4200 ± 100 nM. The value for `C=CCN1CC(=O)N2[C@@H](Cc3ccc(O)cc3)C(=O)N(Cc3cccc4c3OCCN4C)C[C@@H]2N1C(=O)NCc1ccccc1` [Compound 158] was 900 ± 20 nM. Regarding `C=CCN1CC(=O)N2[C@@H](Cc3ccc(NC=O)cc3)C(=O)N(Cc3ccc(F)cc3F)C[C@@H]2N1C(=O)NCc1ccccc1` [Compound 159], the IC50 came to 2700 ± 200 nM.

On to `CCCN1CC(=O)N2[C@@H](Cc3ccc(NC=O)cc3)C(=O)N(Cc3ccc(F)cc3F)C[C@@H]2N1C(=O)NCc1ccccc1` [Compound 160], for which the IC50 turned out to be 10600 ± 500 nM.

Regarding `C=CCN1CC(=O)N2[C@@H](Cc3ccc(OP(=O)(O)O)cc3)C(=O)N(Cc3ccc(Cl)c(N(C)C)c3)C[C@@H]2N1C(=O)NCc1ccccc1` [Compound 161], the IC50 worked out at 1800 ± 200 nM. `C=CCN1CC(=O)N2[C@@H](Cc3ccc(O)cc3)C(=O)N(Cc3cc(F)c(F)cc3N(C)C)C[C@@H]2N1C(=O)NCc1ccccc1` [Compound 162]: the IC50 was 1800 ± 600 nM. On to `C=CCN1CC(=O)N2[C@@H](Cc3ccc(OP(=O)(O)O)cc3)C(=O)N(Cc3cc(F)c(F)cc3N(C)C)C[C@@H]2N1C(=O)NCc1ccccc1` [Compound 163], for which the IC50 came out at 1700 ± 500 nM. The value for `C=CCN1CC(=O)N2[C@@H](Cc3ccc(O)cc3)C(=O)N(Cc3ccccc3)C[C@@H]2N1C(=O)NCc1ccccc1` [Compound 164] was 1100 ± 200 nM; that for `[2H]C([2H])(c1ccc(O)cc1)[C@H]1C(=O)N(Cc2cccc3ccccc23)C[C@H]2N1C(=O)CN(C)N2C(=O)NCc1ccccc1` [Compound 165] was 3900 ± 300 nM; that for `[2H]c1cc(C[C@H]2C(=O)N(Cc3cccc4ccccc34)C[C@H]3N2C(=O)CN(C)N3C(=O)NCc2ccccc2)cc([2H])c1O` [Compound 166] was 3300 ± 200 nM. The value for `C=CCN1CC(=O)N2[C@@H](Cc3ccc(O)cc3)C(=O)N(Cc3cc(C)cc4c3N(C)CCO4)C[C@@H]2N1C(=O)NCc1ccccc1` [Compound 167] was 1300 ± 100 nM. The value for `CCCN1CC(=O)N2[C@@H](Cc3ccc(O)cc3)C(=O)N(Cc3ccccc3)C[C@@H]2N1C(=O)NCc1ccccc1` [Compound 168] was 3500 ± 300 nM; that for `C=CCN1CC(=O)N2C(Cc3ccc(O)cc3)C(=O)N(Cc3ccc(F)cc3F)CC2N1C(=O)NCc1ccccc1` (centres unmarked) [Compound 170] was 1500 ± 500 nM.

As usually defined, the IC50 is the concentration at which inhibition is half-maximal.
